One may read the DC50 as the midpoint of the concentration-degradation curve.

One assay has as its target T1, androgen receptor (AR) splicing variant AR-v7 (Homo sapiens, UniProt P10275).
T1 construct: The degradation activity of compounds on AR-v7 in 22RV1 cells; host or cells: 22RV1 cells
T1 sequence (P10275 1-644 isoform P10275-3): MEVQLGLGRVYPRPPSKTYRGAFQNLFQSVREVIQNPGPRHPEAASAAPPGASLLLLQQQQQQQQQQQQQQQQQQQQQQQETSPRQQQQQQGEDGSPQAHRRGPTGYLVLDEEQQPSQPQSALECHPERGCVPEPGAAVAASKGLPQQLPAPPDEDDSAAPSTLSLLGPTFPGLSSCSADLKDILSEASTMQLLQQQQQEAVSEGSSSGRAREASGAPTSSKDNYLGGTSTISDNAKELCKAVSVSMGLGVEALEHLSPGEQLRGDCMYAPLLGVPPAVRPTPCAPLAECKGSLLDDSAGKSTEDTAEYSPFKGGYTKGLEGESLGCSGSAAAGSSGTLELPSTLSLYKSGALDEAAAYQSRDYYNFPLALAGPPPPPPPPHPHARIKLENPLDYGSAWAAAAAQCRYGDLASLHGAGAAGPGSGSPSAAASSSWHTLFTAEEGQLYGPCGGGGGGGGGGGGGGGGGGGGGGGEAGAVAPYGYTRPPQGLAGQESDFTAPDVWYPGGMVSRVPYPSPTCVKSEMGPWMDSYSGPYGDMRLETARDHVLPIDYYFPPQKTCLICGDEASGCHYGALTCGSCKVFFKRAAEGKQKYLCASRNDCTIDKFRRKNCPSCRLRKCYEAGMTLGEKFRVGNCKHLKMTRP
Nature of the assay: Degradation activity on androgen receptor splicing variant AR-v7 in 22RV1 cells (ELISA). The following applies: AR-v7 degradation in 22RV1 cells, 48 h, class symbols. Format: cell-based. A general note: ELISA stands for enzyme-linked immunosorbent assay.
In turn, `CC(C)(c1ccc(OCc2ccnc(N3CC4(COC4)C3)n2)cc1)c1ccc(OC2CCC(Nc3ccc4c(c3)C(=O)N(C3CCC(=O)NC3=O)C4=O)C2)cc1` (centres unmarked) [Example 563, 5-((3-(4-(2-(4-((2-(2-oxa-6-azaspiro[3.3]heptan-6-yl)pyrimidin-4-yl)methoxy)phenyl)propan-2-yl)phenoxy)cyclopentyl)amino)-2-(2,6-dioxopiperidin-3-yl)isoindolin-1,3-dione] yielded a DC50 of 11 to 100 nM.
Same read-out and setting: the result for `CC1(C)CN(c2nccc(COc3ccc(C(C)(C)c4ccc(O[C@H]5C[C@@H](Nc6ccc7c(c6)C(=O)N(C6CCC(=O)NC6=O)C7=O)C5)cc4)cc3)n2)CCN1` (some centres unmarked) [Example 458, 5-(((1s,3s)-3-(4-(2-(4-((2-(3,3-dimethylpiperazin-1-yl)pyrimidin-4-yl)methoxy)phenyl)propan-2-yl)phenoxy)cyclobutyl)amino)-2-(2,6-dioxopiperidin-3-yl)isoindolin-1,3-dione] reads 11 to 100 nM; that for `CC(C)(c1ccc(OCc2ccnc(N3CC4(COC4)C3)n2)cc1)c1ccc(OCC2CC(Nc3ccc4c(c3)C(=O)N(C3CCC(=O)NC3=O)C4=O)C2)cc1` (centres unmarked) [Example 112, 5-((3-((4-(2-(4-((2-(2-oxa-6-azaspiro[3.3]heptan-6-yl)pyrimidin-4-yl)methoxy)phenyl)propan-2-yl)phenoxy)methyl)cyclobutyl)amino)-2-(2,6-dioxopiperidin-3-yl)isoindolin-1,3-dione], 11 to 100 nM.
Turning to `CC(C)(c1ccc(OCc2ccnc(N3CC4(COC4)C3)n2)cc1)c1ccc(OC2CCN(Cc3ccc4c(c3)C(=O)N(C3CCC(=O)NC3=O)C4=O)CC2)cc1` (centres unmarked) [Example 147, 5-((4-(4-(2-(4-((2-(2-oxa-6-azaspiro[3.3]heptan-6-yl)pyrimidin-4-yl)methoxy)phenyl)propan-2-yl)phenoxy)piperidin-1-yl)methyl)-2-(2,6-dioxopiperidin-3-yl)isoindolin-1,3-dione], the DC50 lay within 1000 to 5000 nM.
On the same count and under the same terms, in the case of `CC(=O)c1nccc(COc2ccc(C(C)(C)c3ccc(OC4CC5(CCN(c6ccc7c(c6)C(=O)N(C6CCC(=O)NC6=O)C7=O)CC5)C4)cc3)cc2)n1` (centres unmarked) [Example 489] it was 1000 to 5000 nM; in that of `CC(C)(c1ccc(OCc2ccnc(N3CCC4(CNC4)C3)n2)cc1)c1ccc(O[C@H]2C[C@H](Nc3ccc4c(c3)C(=O)N(C3CCC(=O)NC3=O)C4=O)C2)cc1` (some centres unmarked) [Example 83, 5-(((1r,3r)-3-(4-(2-(4-((2-(2,6-diazaspiro[3.4]octan-6-yl)pyrimidin-4-yl)methoxy)phenyl)propan-2-yl)phenoxy)cyclobutyl)amino)-2-(2,6-dioxopiperidin-3-yl)isoindolin-1,3-dione], 11 to 100 nM; in that of `Cc1nc(-c2cc(Oc3ccc(C(C)(C)c4ccc(O[C@H]5C[C@@H](Nc6ccc7c(c6)C(=O)N(C6CCC(=O)NC6=O)C7=O)C5)cc4)cc3)ccn2)no1` (some centres unmarked) [Example 174, 2-(2,6-dioxopyridin-3-yl)-5-(((1s,3s)-3-(4-(2-(4-((2-(5-methyl-1,2,4-oxadiazol-3-yl)pyridin-4-yl)oxy)phenyl)propan-2-yl)phenoxy)cyclobutyl)amino) isoindolin-1,3-dione], 11 to 100 nM.
`Cc1nc(-c2ccc(Oc3ccc(C(C)(C)c4ccc(O[C@H]5C[C@@H](Nc6ccc7c(c6)C(=O)N(C6CCC(=O)NC6=O)C7=O)C5)cc4)cc3)cn2)no1` (some centres unmarked) [Example 597, 2-(2,6-dioxopiperidin-3-yl)-5-(((1s,3s)-3-(4-(2-(4-((6-(5-methyl-1,2,4-oxadiazol-3-yl)pyridin-3-yl)oxy)phenyl)propan-2-yl)phenoxy)cyclobutyl)amino)isoindolin-1,3-dione]: the DC50 was 11 to 100 nM.
Still for that read-out and setting: in the case of `Cc1nc(-c2nccc(Oc3ccc(C(C)(C)c4ccc(O[C@H]5C[C@@H](Nc6ccc7c(c6)C(=O)N(C6CCC(=O)NC6=O)C7=O)C5)cc4)cc3)n2)no1` (some centres unmarked) [Example 292] it was 11 to 100 nM; in that of `CC(C)(c1ccc(Oc2cnc(C(O)C3CCC3)nc2)cc1)c1ccc(O[C@H]2C[C@H](Nc3ccc4c(c3)C(=O)N(C3CCC(=O)NC3=O)C4=O)C2)cc1` (some centres unmarked) [Example 261], under 10 nM.
Same read-out and setting: the result for `CC(C)(c1ccc(OCc2ccnc(N3CCC4(CCNC4)CC3)n2)cc1)c1ccc(O[C@H]2C[C@@H](Nc3ccc4c(c3)C(=O)N(C3CCC(=O)NC3=O)C4=O)C2)cc1` (some centres unmarked) [Example 500, 5-((1s,3s)-3-(4-(2-(4-(4-((2-(2,8-diazaspiro[4.5]decan-8-yl)pyrimidin-4-yl)methoxy)phenyl)propan-2-yl)phenoxy)cyclobutyl)amino)-2-(2,6-dioxopyridin-3-yl)isoindolin-1,3-dione] reads 11 to 100 nM; that for `CC(C)(c1ccc(OCc2ccnc(N3CC4(COC4)C3)n2)cc1)c1ccc(OC[C@@H]2CCN2Cc2ccc3c(c2)C(=O)N(C2CCC(=O)NC2=O)C3=O)cc1` (some centres unmarked) [Example 566], 1000 to 5000 nM; that for `CC(=O)c1nccc(COc2ccc(C(C)(C)c3ccc(OC[C@H]4CC[C@H](Nc5ccc6c(c5)C(=O)N(C5CCC(=O)NC5=O)C6=O)CC4)cc3)cc2)n1` (some centres unmarked) [Example 146], 1000 to 5000 nM.
Same read-out and setting: in the case of `CC(C)(c1ccc(OCCCOCCCOCCCNc2ccc3c(c2)C(=O)N(C2CCC(=O)NC2=O)C3=O)cc1)c1ccc(OCc2ccnc(NS(C)(=O)=O)n2)cc1` (centres unmarked) [Example 20, N-(4-((4-(2-(4-(3-(3-(3-((2-(2,6-dioxopiperidin-3-yl)-1,3-dioxoisoindolin-5-yl)amino)propoxy)propoxy)propoxy)phenyl)propan-2-yl)phenoxy)methyl)pyrimidin-2-yl)methanesulfonamide] it was 1000 to 5000 nM.
`Cc1noc(-c2ncc(Oc3ccc(C4(c5ccc(O[C@H]6C[C@H](Nc7ccc8c(c7)C(=O)N(C7CCC(=O)NC7=O)C8=O)C6)cc5)CCCC4)cc3)cn2)n1` (some centres unmarked) [Example 297]: the DC50 is under 10 nM.
On the same count and under the same terms, in the case of `CC(=O)c1nccc(COc2ccc(C(C)(C)c3ccc(OCCCCCCCCCNc4cccc5c4C(=O)N(C4CCC(=O)NC4=O)C5=O)cc3)cc2)n1` (centres unmarked) [Example 386, 4-((9-(4-(2-(4-((2-acetylpyrimidin-4-yl)methoxy)phenyl)propan-2-yl)phenoxy)nonyl)amino)-2-(2,6-dioxopyridin-3-yl)isoindol-1,3-dione] it was 1000 to 5000 nM; in that of `CC(=O)c1nccc(COc2ccc(C(C)(C)c3ccc(OC4CC5(C4)CN(c4ccc6c(c4)C(=O)N(C4CCC(=O)NC4=O)C6=O)C5)cc3)cc2)n1` (centres unmarked) [Example 561], 11 to 100 nM.
On the same count and under the same terms, the result for `CCN1CC(Oc2ncnc(Oc3ccc(C(C)(C)c4ccc(O[C@H]5C[C@@H](Nc6ccc7c(c6)C(=O)N(C6CCC(=O)NC6=O)C7=O)C5)cc4)cc3)c2F)C1` (some centres unmarked) [Example 576] reads 11 to 100 nM.
Same read-out and setting: the result for `CC(C)(c1ccc(Oc2ccnc(N3CC4(COC4)C3)n2)cc1)c1ccc(O[C@H]2C[C@@H](Nc3ccc4c(c3)C(=O)N(C3CCC(=O)NC3=O)C4=O)C2)cc1` (some centres unmarked) [Example 459] reads 11 to 100 nM; that for `CC(=O)c1nccc(COc2ccc(C(C)(C)c3ccc(N4CC5(CCN(c6ccc7c(c6)C(=O)N(C6CCC(=O)NC6=O)C7=O)CC5)C4)cc3)cc2)n1` (centres unmarked) [Example 559], 1000 to 5000 nM.
In turn, `CC(C)[C@@H](COc1ccc(C(C)(C)c2ccc(OCc3ccnc(N4CC5(COC5)C4)n3)cc2)cc1)Nc1ccc2c(c1)C(=O)N(C1CCC(=O)NC1=O)C2=O` (some centres unmarked) [Example 150] registered a DC50 of 11 to 100 nM.
In turn, `CN(C(=O)c1ccc(C(C)(C)c2ccc(OCc3ccnc(N4CC5(COC5)C4)n3)cc2)cc1)C1CN(c2ccc3c(c2)C(=O)N(C2CCC(=O)NC2=O)C3=O)C1` (centres unmarked) [Example 508, 4-(2-(4-((2-(2-oxa-6-azaspiro[3.3]heptan-6-yl)pyrimidin-4-yl)methoxy)phenyl)propan-2-yl)-N-(1-(2-(2,6-dioxopiperidin-3-yl)-1,3-dioxoisoindolin-5-yl)azetidin-3-yl)-N-methylbenzamide] gave a half-maximal degradation concentration (DC50) of 101 to 1000 nM.
Turning to `CC(=O)c1nccc(COc2ccc(C(C)(C)c3ccc(OCC4CN(c5ccc6c(c5)C(=O)N(C5CCC(=O)NC5=O)C6=O)C4)cc3)cc2)n1` (centres unmarked) [Example 485, 5-(3-((4-(2-(4-((2-acetylpyrimidin-4-yl)methoxy)phenyl)propan-2-yl)phenoxy)methyl)azetidin-1-yl)-2-(2,6-dioxopiperidin-3-yl)isoindolin-1,3-dione], the DC50 was 11 to 100 nM.
Still for that read-out and setting: in the case of `O=C1CCC(N2C(=O)c3ccc(N[C@H]4C[C@H](Oc5ccc(C6(c7ccc(Oc8ccc(-n9nccn9)nn8)cc7)CC6)cc5)C4)cc3C2=O)C(=O)N1` (some centres unmarked) [Example 374, 5-(((1r,3r)-3-(4-(1-(4-((6-(2H-1,2,3-triazole-2-yl)pyridazine-3-yl)oxy)phenyl)cyclopropyl)phenoxy)cyclobutyl)amino)-2-(2,6-dioxopiperidin-3-yl)isoindolin-1,3-dione] it was 11 to 100 nM.

The assay is the same for the next values; noted with them: AR-v7 degradation in 22RV1 cells, 48 h, numeric values.
The compound `C=CC(=O)Nc1nccc(COc2ccc(C(C)(C)c3ccc(OCCCCCCCCOCCN4CCN(c5ccc6c(c5)C(=O)N(C5CCC(=O)NC5=O)C6=O)CC4)cc3)cc2)n1` (centres unmarked) [Example 227] displayed a DC50 of over 10000 nM.
In the case of `CC(=O)c1nccc(COc2ccc(C(C)(C)c3ccc(OCC4CCN(c5cccc6c5C(=O)N(C5CCC(=O)NC5=O)C6=O)C4)cc3)cc2)n1` (centres unmarked) [Example 301, 4-(3-((4-(2-(4-((2-acetylpyrimidin-4-yl)methoxy)phenyl)propan-2-yl)phenoxy)methyl)pyrrolidin-1-yl)-2-(2,6-dioxopiperidin-3-yl)isoindolin-1,3-dione], the DC50 is over 10000 nM.

(Values after US20250051347A1, “BIFUNCTIONAL CHIMERIC HETEROCYCLIC COMPOUND AND USE THEREOF AS ANDROGEN RECEPTOR DEGRADER” (Hinova Pharmaceuticals, Inc., priority 2021, published 2025).)
